Experimental findings from patent publication US9145415B2, “Nitrogen-containing heterocyclic compound or salt thereof” (FUJIFILM Corporation, priority 2012, dated 2015) are described below.

In experiment [1] the target is T1, human FLT3 protein (FLT3 (WT)) (Homo sapiens, UniProt P36888).
T1 construct: human FLT3 protein (intracellular region, 564 to 993 aa); GST; purchased Carna Biosciences; host or cells: baculovirus expression system
T1 sequence (P36888 564-993): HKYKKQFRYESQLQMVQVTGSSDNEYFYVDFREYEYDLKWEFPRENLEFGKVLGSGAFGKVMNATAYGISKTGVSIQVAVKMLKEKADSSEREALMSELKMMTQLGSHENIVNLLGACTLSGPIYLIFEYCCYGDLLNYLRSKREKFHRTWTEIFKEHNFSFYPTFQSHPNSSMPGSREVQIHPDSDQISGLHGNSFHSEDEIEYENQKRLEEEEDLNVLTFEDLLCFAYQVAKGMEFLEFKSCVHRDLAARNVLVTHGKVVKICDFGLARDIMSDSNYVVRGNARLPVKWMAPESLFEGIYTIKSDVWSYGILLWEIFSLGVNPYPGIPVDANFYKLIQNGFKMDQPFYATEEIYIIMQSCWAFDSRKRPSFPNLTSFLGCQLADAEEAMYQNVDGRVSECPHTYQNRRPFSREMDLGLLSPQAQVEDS
Briefly: FLT3 inhibition test (FLT3 enzyme inhibition, time-resolved fluorescence of substrate peptide phosphorylation). Type of experiment: biochemical. As to conditions: GST-fused human FLT3 (564 to 993 aa), ATP 50 μM; read-out: FLT3 (WT) enzyme inhibition activity. As to the method:
The FLT3 inhibition test was performed for the compounds of the present invention by the method described below.
A reaction mixture in a volume of 9 μL containing the FLT3 protein and a test compound of a predetermined concentration (1.2 μg of FLT3, 100 mM HEPES, 10 mM MgCl2, 25 mM NaCl, 0.01% BSA, 1 mM DTT, pH 7.5) was left standing at 25° C. for 15 minutes. […] (Toray Industries), and 3 μL (final concentration 50 μM) of ATP (Sigma-Aldrich) were added to the reaction mixture, and the mixture was shaken for 2 minutes, and then further left standing at 25° C. for 30 minutes to allow the enzymatic reaction.

Another experiment relates to MV4-11 cells. Description: Leukemia cell proliferation inhibition test (ATPlite), MV4-11. In kind it is cell-based. As to conditions: Homo sapiens, MV4-11, 72 hours culture, ATPlite, GI50 per method, read-out: MV4-11 cell proliferation inhibition effect. As to the method:
(§1) A leukemia cell proliferation inhibition test was performed for the compounds of the present invention by using the leukemia cell strains MV4-11 (ATCC Number, CRL-9591) and Molm-13 (DSMZ Number, ACC554).
(§2) The leukemia cell proliferation inhibition test was performed by the method described below.
(§3) For the purpose of measuring proliferation inhibition attained with a compound, the total cell count was quantified on the basis of the total cellular ATP concentration using the ATPlite (PerkinElmer) reagent utilizing firefly luciferase. The Molm-13 or MV4-11 cells were added to the RPMI medium containing penicillin and streptomycin (penn/strep) and 10% FBS at a density of 2×10^5 cells/ml, and 50 μL (10,000 cells) of the cell suspension was inoculated to each well of a 96-well plate (Corning).
(§4) A serially diluted solution of a compound or 0.1% DMSO (solvent control) in a volume of 50 μL was added to the cells, and then the cells were cultured for 72 hours under the standard cell proliferation conditions (37° C., 5% CO2) to allow proliferation of the cells. In order to measure the proliferation of the total cells, equal volume of the ATPlite reaction mixture was added to each well in accordance with the instructions attached to ATPlite, and then luminescence count of the well was measured (relative light unit, RLU).
(§5) The RLU signal observed with the DMSO solvent control after 72 hours of the culture was defined as a signal indicating 0% inhibition, and the GI50 value for the proliferation inhibition corresponds to a concentration of a compound that provides 50% inhibition based on the proliferation of the total cells contained in the DMSO solvent control. Each data point was obtained from samples in duplicate. The GI50 values were calculated by the non-linear regression fitting (Fit Model (205)) according to a sigmoid dose-reaction equation using the XLfit software.

A further experiment has as its system Molm-13 cells. Briefly: Leukemia cell proliferation inhibition test (ATPlite), Molm-13. In kind it is cell-based. As to conditions: Homo sapiens, Molm-13, 72 hours culture, ATPlite, GI50 per method, read-out: MOLM13 cell proliferation inhibition effect. As to the method: as §1, §2, §3, §4, §5
On the technique in general: ATP-based viability assays read luminescence as a measure of living cells.

Where two headings read alike, the source gives them in different places. Bounds are passed on as bounds.

Consider `CCCNc1nc(Nc2ccnc(F)c2)ncc1C#C[C@H]1C[C@@H](NC(=O)[C@H](C)N(C)C(=O)/C=C/CN(C)C)C1` (relative stereo) [Compound 14-4, (E)-4-(Dimethylamino)-N—((S)-1-(((1S*,3R*)-3-((2-((2-fluoropyridin-4-yl)amino)-4-(propylamino)pyrimidin-5-yl)ethynyl)cyclobutyl)amino)-1-oxopropan-2-yl)-N-methyl-2-butenamide], for which the IC50 in experiment [1] was less than 10 nM; with MV4-11 cells (MV4-11, 72 h) it was less than 10 nM; in the experiment on Molm-13 cells (MOLM-13, 72 h), less than 10 nM.

Regarding `C[C@@H](C(=O)N[C@H]1C[C@@H](C#Cc2cnc(Nc3ccc(C#N)cc3)nc2NC2CC2)C1)N(C)C(=O)/C=C/CN(C)C` (relative stereo) [Compound 15-8, (E)-N—((S)-1-(((1S*,3R*)-3-((2-((4-Cyanophenyl)amino)-4-(cyclopropylamino)pyrimidin-5-yl)ethynyl)cyclobutyl)amino)-1-oxopropan-2-yl)-4-(dimethylamino)-N-methyl-2-butenamide], the IC50 was less than 10 nM in experiment [1]; less than 10 nM with MV4-11 cells (MV4-11, 72 h); less than 10 nM with Molm-13 cells (MOLM-13, 72 h).

Take `C[C@@H](C(=O)N[C@H]1C[C@@H](C#Cc2cnc(Nc3ccc(F)cc3)nc2NC2CC2)C1)N(C)C(=O)/C=C/CN(C)C` (relative stereo) [Compound 15-9, (E)-N—((S)-1-(((1S*,3R*)-3-((4-(Cyclopropylamino)-2-((4-fluorophenyl)amino)pyrimidin-5-yl)ethynyl)cyclobutyl)amino)-1-oxopropan-2-yl)-4-(dimethylamino)-N-methyl-2-butenamide]: the IC50 in experiment [1] was less than 10 nM; in the experiment on MV4-11 cells (MV4-11, 72 h), less than 10 nM; with Molm-13 cells (MOLM-13, 72 h) it was less than 10 nM.

Take `COc1ccc(Nc2ncc(C#C[C@H]3C[C@@H](NC(=O)[C@H](C)N(C)C(=O)/C=C/CN(C)C)C3)c(NC3CC3)n2)cc1F` (relative stereo) [Compound 15-10, (E)-N—((S)-1-(((1S*,3R*)-3-((4-(Cyclopropylamino)-2-((3-fluoro-4-methoxyphenyl)amino)pyrimidin-5-yl)ethynyl)cyclobutyl)amino)-1-oxopropan-2-yl)-4-(dimethylamino)-N-methyl-2-butenamide]: the IC50 was less than 10 nM in experiment [1]; less than 10 nM in the experiment with MV4-11 cells (MV4-11, 72 h); less than 10 nM in the experiment with Molm-13 cells (MOLM-13, 72 h).

As for `CCCNc1nc(Nc2cccc(F)c2)ncc1C#C[C@H]1CCCC(NC(=O)[C@H](C)N(C)C(=O)/C=C/CN(C)C)C1` (stereo in doubt) [Compound 13-2, (E)-4-(dimethylamino)-N—((S)-1-(((1R,3S)-3-((2-((3-fluorophenyl)amino)-4-(propylamino)pyrimidin-5-yl)ethynyl)cyclohexyl)amino)-1-oxopropan-2-yl)-N-methyl-2-butenamide], the IC50 is less than 10 nM in experiment [1]; 10 to 100 nM in the experiment with MV4-11 cells (MV4-11, 72 h); 10 to 100 nM in the experiment with Molm-13 cells (MOLM-13, 72 h).

In the case of `C=CC(=O)N[C@@H](C)C(=O)Nc1cccc(NC(=O)c2cnc(NCCc3ccncc3)nc2NCCC)c1` [Compound 1-1, (S)—N-(3-(2-(acrylylamido)propanamido)phenyl)-4-(propylamino)-2-((2-(pyridin-4-yl)ethyl)amino)pyrimidine-5-carboxamide], the IC50 in experiment [1] is less than 10 nM; with MV4-11 cells (MV4-11, 72 h), 10 to 100 nM; in the experiment with Molm-13 cells (MOLM-13, 72 h) it was 10 to 100 nM.

With `CCCNc1nc(NCCc2ccncc2)ncc1C(=O)Nc1cccc(NC(=O)[C@H](C)NC(=O)/C=C/CN(C)C)c1` [Compound 1-2, (S,E)-N-(3-(2-(4-(dimethylamino)-2-butenamido)propanamido)phenyl)-4-(propylamino)-2-((2-(pyridin-4-yl)ethyl)amino)pyrimidine-5-carboxamide], the IC50 in experiment [1] was less than 10 nM; with MV4-11 cells (MV4-11, 72 h), less than 10 nM; with Molm-13 cells (MOLM-13, 72 h), 10 to 100 nM.

As for `C=CC(=O)N(C)CC(=O)Nc1cccc(NC(=O)c2cnc(NCCc3ccncc3)nc2NCCC)c1` [Compound 1-3], the IC50 in experiment [1] was less than 10 nM; in the experiment on MV4-11 cells (MV4-11, 72 h), less than 10 nM; in the experiment with Molm-13 cells (MOLM-13, 72 h), less than 10 nM.

Regarding `C=CC(=O)NCC(=O)NC1CCCC(NC(=O)c2cnc(NCCc3ccncc3)nc2NCCC)C1` (stereo not shown) [Compound 1-4], the IC50 is less than 10 nM in experiment [1]; less than 10 nM in the experiment on MV4-11 cells (MV4-11, 72 h); 10 to 100 nM in the experiment with Molm-13 cells (MOLM-13, 72 h).

With `C=CC(=O)NCC(=O)N(C)c1cccc(NC(=O)c2cnc(NCCc3ccncc3)nc2NCCC)c1` [Compound 1-5], the IC50 lay in the range of 10 to 100 nM in experiment [1]; 10 to 100 nM in the experiment with MV4-11 cells (MV4-11, 72 h); 10 to 100 nM in the experiment on Molm-13 cells (MOLM-13, 72 h).

Regarding `C=CC(=O)NCC(=O)NC(CC)CCNC(=O)c1cnc(NCCc2ccncc2)nc1NCCC` (stereo not shown) [Compound 1-6], the IC50 was less than 10 nM in experiment [1]; 10 to 100 nM in the experiment on MV4-11 cells (MV4-11, 72 h); 10 to 100 nM in the experiment on Molm-13 cells (MOLM-13, 72 h).

In the case of `C=CC(=O)N(C)CC(=O)NC(CC)CCNC(=O)c1cnc(NCCc2ccncc2)nc1NCCC` (stereo not shown) [Compound 1-7], the IC50 was less than 10 nM in experiment [1]; 10 to 100 nM in the experiment on MV4-11 cells (MV4-11, 72 h); less than 10 nM in the experiment with Molm-13 cells (MOLM-13, 72 h).

In the case of `CCCNc1nc(NCCc2ccncc2)ncc1C(=O)Nc1ccc(C)c(NC(=O)CNC(=O)/C=C/CN(C)C)c1` [Compound 1-8], the IC50 in experiment [1] is less than 10 nM; with MV4-11 cells (MV4-11, 72 h), less than 10 nM; with Molm-13 cells (MOLM-13, 72 h) it was 10 to 100 nM.

Take `CCCNc1nc(NCCc2ccncc2)ncc1C(=O)Nc1ccc(OC)c(NC(=O)CNC(=O)/C=C/CN(C)C)c1` [Compound 1-9]: the IC50 was less than 10 nM in experiment [1]; less than 10 nM in the experiment on MV4-11 cells (MV4-11, 72 h); 10 to 100 nM in the experiment on Molm-13 cells (MOLM-13, 72 h).

For the compound `CCCNc1nc(NCCc2ccncc2)ncc1C(=O)Nc1ccc(OC)c(NC(=O)CN(C)C(=O)/C=C/CN(C)C)c1` [Compound 1-10], the IC50 in experiment [1] is less than 10 nM; in the experiment with MV4-11 cells (MV4-11, 72 h) it was less than 10 nM; with Molm-13 cells (MOLM-13, 72 h), less than 10 nM.

Consider `CCCNc1nc(NCCc2ccncc2)ncc1C(=O)NCCC(CC)NC(=O)CNC(=O)/C=C/CN(C)C` (stereo not shown) [Compound 1-11], for which the IC50 was less than 10 nM in experiment [1]; 10 to 100 nM in the experiment with MV4-11 cells (MV4-11, 72 h); 10 to 100 nM in the experiment with Molm-13 cells (MOLM-13, 72 h).

As for `CCCNc1nc(NCCc2ccncc2)ncc1C(=O)NCCC(CC)NC(=O)CN(C)C(=O)/C=C/CN(C)C` (stereo not shown) [Compound 1-12], the IC50 in experiment [1] is less than 10 nM; in the experiment on MV4-11 cells (MV4-11, 72 h), less than 10 nM; in the experiment on Molm-13 cells (MOLM-13, 72 h), 10 to 100 nM.

`C=CC(=O)NCC(=O)Nc1cccc(NC(=O)c2cnc(NCCc3ccncc3)nc2NCCC)c1` [Compound 2-1, N-(3-(2-(acrylylamido)acetamido)phenyl)-4-(propylamino)-2-((2-(pyridin-4-yl)ethyl)amino)pyrimidine-5-carboxamide]: the IC50 was less than 10 nM in experiment [1], 10 to 100 nM in the experiment with MV4-11 cells and 10 to 100 nM with Molm-13 cells.

With `CCCNc1nc(Nc2ccc(C(N)=O)cc2)ncc1C(=O)NCCCNC1CCCC[C@@H]1NC(=O)/C=C/CN(C)C` (stereo partly shown) [Compound 3-25], the IC50 in the experiment with MV4-11 cells (MV4-11, 72 h) was 10 to 100 nM; in the experiment with Molm-13 cells (MOLM-13, 72 h), 100 to 1000 nM.

For `CCCNc1nc(Nc2ccc(C(N)=O)cc2)ncc1C(=O)NCCCN[C@@H]1CCCC[C@@H]1NC(=O)/C=C/CN(C)C` [Compound 3-25], in experiment [1], the IC50 is less than 10 nM.

As for `CCCNc1nc(Nc2ccc(C#N)cc2)ncc1C#CCCCNC(=O)[C@H](C)N(C)C(=O)/C=C/CN(C)C` [Compound 7-5, (S,E)-N-(1-((5-(2-((4-Cyanophenyl)amino)-4-(propylamino)pyrimidin-5-yl)-4-pentyn-1-yl)amino)-1-oxopropan-2-yl)-4-(dimethylamino)-N-methyl-2-butenamide], the IC50 with MV4-11 cells (MV4-11, 72 h) is less than 10 nM; in the experiment on Molm-13 cells (MOLM-13, 72 h), less than 10 nM.

As for `CCCNc1nc(Nc2ccc(C#N)cc2)ncc1C#CCCCNC(=O)[C@@H](C)N(C)C(=O)/C=C/CN(C)C` [Compound 7-32], the IC50 with MV4-11 cells (MV4-11, 72 h) was less than 10 nM; in the experiment on Molm-13 cells (MOLM-13, 72 h), less than 10 nM.
